The values below come from patent US20170114128A1, “USE OF TGF-BETA ANTAGONISTS OF TREAT TYPE-2 DIABETES” (ALBERT EINSTEIN COLLEGE OF MEDICINE, INC., priority 2014, published 2017).

The subject of one test is Myd88 knockout mice. The test can be described thus: Third-ventricle TGF-β1 delivery in Myd88 knockout mice. The format is in vivo. The settings on record: hypothalamic third ventricle; data not shown. The source says: To further assess this point, it was asked if the effects of brain TGF-β excess could be impaired by ablation of a signaling component, such as toll-like receptor-4 (TLR4) or myeloid differentiation primary response gene 88 (MyD88), because they employ kinase signaling to induce IκBα phosphorylation and thus NF-κB activation. Using a genetic model, T1r4 knockout (T1r4−/−) mice, TGF-β1 or vehicle was delivered into the hypothalamic third ventricle of these mice and littermate WT mice via pre-implanted cannula. Vehicle-injected T1r4−/− mice and WT mice were both normal in glucose and insulin tolerance tests (FIG. 4a, b). […] Altogether, brain TGF-β excess may use a mechanism that directly targets IκBα rather than upstream kinase signaling to activate hypothalamic NF-κB.

The test system of test [1] is hypothalamic NF-κB signaling components. The test can be described thus: Western blots of hypothalamic NF-κB signaling components after third-ventricle TGF-β1. In kind it is in vivo, mice. As to the method:
Induction of hypothalamic NF-κB activation by TGF-β: TGF-β is often appreciated for anti-inflammatory feature in immune response, but, depending on physiological context and particularly in pathological conditions, TGF-β can be inflammatory (28)—although it is atypical and many details are still unclear. Here, because NF-κB has been known to atypically mediate hypothalamic inflammation in obesity or aging (12-14,18-20,23-27), it was analyzed if NF-κB signaling components were different in the hypothalamus of mice with third-ventricle injection of TGF-β vs. vehicle. […] First, since IκBα loss is the specific step that immediately liberates cytoplasmic NF-κB for nuclear translocation, and NF-κB subunit RelA in the nucleus undergoes phosphorylation, RelA phosphorylation was measured in mice injected with TGF-β1 or vehicle. […] Second, it was evaluated if TGF-β1-triggered NF-κB activation could be involved in HFD-induced hypothalamic inflammation. By employing heterogeneous Tgfb1 knockout (Tgfb1 +/−) mice, whether haplodeficiency of Tgfb1 in this mouse model could affect the induction of hypothalamic inflammation by HFD feeding was examined To do so, adult Tgfb1+/− mice and littermate WT controls were subjected to HFD feeding for three weeks, and chow feeding was included to provide as dietary control. Indeed, hypothalamic Tgfb1 mRNA in chow-fed Tgfb1+/− mice dropped by ˜50% compared to chow-fed WT (FIG. 4b), which was consistent with the literature (35). […] Using these hypothalamic samples, we examined mRNA levels of a list of inflammation-related molecules including TNFα, IL-6, SOCS3, TLR4, PTP1B, PKCλ and PKCι. […] Therefore, brain TGF-β excess plays a role in inducing diet-induced hypothalamic inflammation.
Thus, while kinase (e.g., IKK)-induced IκBα phosphorylation is a crucial, rapid signaling reaction in classical inflammation, this process is not primarily critical in TGF-β1-induced hypothalamic inflammation.
To further assess this point, it was asked if the effects of brain TGF-β excess could be impaired by ablation of a signaling component, such as toll-like receptor-4 (TLR4) or myeloid differentiation primary response gene 88 (MyD88), because they employ kinase signaling to induce IκBα phosphorylation and thus NF-κB activation. […]
Protein, mRNA and peptide analyses. […] Quantification of Western blots was processed with Image J. Total RNA was extracted from hypothalamic tissue using TRIzol® (Invitrogen), and cDNA was synthesized using M-MLV RT System (Promega). Using SYBR® Green PCR Master Mix (Applied Biosystems), expression levels of target genes were analyzed via PCR amplification and quantification. […] Serum and CSF TGF-β content were measured using TGF-β ELISA kit (R&D Systems).

Where [2] appears, read: third-ventricle injection vs vehicle.

Regarding “TGF-β1: transforming growth factor-β1 (Sigma), cytokine dissolved in artificial cerebrospinal fluid for third-ventricle injection”, in the test with Myd88 knockout mice, the “effect of lack of Myd88 on glucose or insulin intolerance following TGF-β1 delivery” value is listed as “did not lead to a significant reduction”. In addition, the “hypothalamic TAK1 phosphorylation” value in test [1] (mouse, in vivo) is “did not lead to hypothalamic TAK1 phosphorylation”. In addition, the “phosphorylated levels of IκBα” value in test [1] (normalized by IκBα protein levels) was “did not change”. In addition, in test [1] (setting [2]), the “hypothalamic IκBα protein levels” value is listed as “significant reduction” and the “hypothalamic RelA phosphorylation” value is “significantly increased”.
